Results as given in ChEMBL document CHEMBL1201862, “PubChem BioAssay data set” (2004).
Activity calls are given as the source filed them.

Tests used:
[1] = HPDE-C7 pancreatic duct cell viability loss – fluorescence, HTS (AID 430); assay type: functional, cell-based; conditions: Homo sapiens
[2] = viability loss of HPDE-C7K cells – cell-based, fluorescence, HTS, primary screen (AID 431); assay type: functional; conditions: Homo sapiens
[3] = biological target: Induced myeloid leukemia cell differentiation protein Mcl-1 (Homo sapiens, UniProt Q07820); assay type: functional
[4] = biological target: T1, Voltage-gated N-type calcium channel alpha-1B subunit/Amyloid beta A4 precursor protein-binding family A member 1 (Homo sapiens, UniProt Q00975+Q02410); assay type: protein assay
[5] = biological target: T1, Voltage-gated N-type calcium channel alpha-1B subunit/Amyloid beta A4 precursor protein-binding family A member 1; assay type: protein assay; remark: listed apart in the source
Ephrin type-A receptor 4 = Ephrin type-A receptor 4 (Mus musculus, UniProt Q03137); test: EphA4 ligand-binding antagonists – biochemical, colorimetric, mouse EphA4, primary screen (AID 689); assay type: functional
Estrogen receptor = biological target: T2, Estrogen receptor (Homo sapiens, UniProt P03372);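 also: potency for inhibiting coactivator peptide recruitment to the receptor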
T2 sequence (P03372 whole entry): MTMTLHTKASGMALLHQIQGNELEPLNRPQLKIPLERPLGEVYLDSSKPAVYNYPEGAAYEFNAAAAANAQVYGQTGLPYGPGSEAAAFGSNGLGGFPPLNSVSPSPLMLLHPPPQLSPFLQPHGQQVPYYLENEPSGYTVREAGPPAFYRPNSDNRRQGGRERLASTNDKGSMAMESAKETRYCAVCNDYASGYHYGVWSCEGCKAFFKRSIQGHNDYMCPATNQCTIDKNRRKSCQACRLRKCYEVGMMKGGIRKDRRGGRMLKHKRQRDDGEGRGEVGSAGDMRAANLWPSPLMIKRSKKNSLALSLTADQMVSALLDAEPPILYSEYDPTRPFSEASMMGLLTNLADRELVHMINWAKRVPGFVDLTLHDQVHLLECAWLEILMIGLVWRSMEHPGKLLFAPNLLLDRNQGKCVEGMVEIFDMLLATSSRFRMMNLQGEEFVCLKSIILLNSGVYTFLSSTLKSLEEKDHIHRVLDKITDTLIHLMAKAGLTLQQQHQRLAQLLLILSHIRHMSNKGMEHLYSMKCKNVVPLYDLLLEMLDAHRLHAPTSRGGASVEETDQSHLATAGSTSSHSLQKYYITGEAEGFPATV

[6] = fluconazole-exposed Candida albicans growth modulators – fluorescence, retest, confirmation (AID 2467); assay type: functional, cell-based
[7] = biological target: UDP-galactopyranose mutase (Mycobacterium tuberculosis, UniProt P9WIQ1); test: Inhibitors of Mycobacterium tuberculosis UDP-galactopyranose mutase (UGM) enzyme Measured in Biochemical System Using Plate Reader - 2105-02_Inhibitor_Dose_CherryPick_Activity. [Related pubchem assays (depositor defined):AID504439]
ORF 73 = ORF 73 (Human herpesvirus 8, UniProt O40947); test: KSHV LANA DNA-binding disruption – biochemical, fluorescence polarization, cherry-picked samples, dose response (AID 504725); design: species or system Human gammaherpesvirus 8;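 also: fluorescence polarization of a labeled DNA duplex reporting LANA DNA binding; potency is for inhibitors that block LANA binding to the DNA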
[8] = biological target: ATP-dependent molecular chaperone HSP82 (Candida albicans (strain WO-1) (Yeast), UniProt C4YTQ8); test: steroid-induced GRE reporter decrease in yeast – S. cerevisiae, luminescence, Hsp90 inhibitor project, dose response (AID 2400); assay type: functional, cell-based;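 also: beta-galactosidase luminescence from glucocorticoid response element reporter as proxy for Hsp90 function; inhibitor potency where signal loss means Hsp90 inhibition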
[9] = NIH-3T3 fibroblast cytotoxicity, dose response, cytotoxicity control, cell-based, fluorescence, Alamar Blue, secondary assay (AID 2327); assay type: functional;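 also: NIH-3T3 mouse fibroblasts cultured with fluconazole at 8 µg/mL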
[10] = biological target: T3, Serine/threonine-protein phosphatase (Candida dubliniensis (strain CD36 / CBS 7987 / NCPF 3949 / NRRLY-17841) (Yeast), UniProt B9W6M3); test: blockers of CaCl2-induced CDRE-lacZ signaling – S. cerevisiae, luminescence, secondary, dose response (AID 2388); assay type: functional, cell-based;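 also: yeast reporter cells carrying a calcineurin-responsive lacZ construct stimulated with calcium chloride; luminescent beta-galactosidase reporter signal in whole cells rather than isolated phosphatase activity; potency for inhibition where a drop in reporter signal means calcineurin blockade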
T3 sequence (B9W6M3 whole entry): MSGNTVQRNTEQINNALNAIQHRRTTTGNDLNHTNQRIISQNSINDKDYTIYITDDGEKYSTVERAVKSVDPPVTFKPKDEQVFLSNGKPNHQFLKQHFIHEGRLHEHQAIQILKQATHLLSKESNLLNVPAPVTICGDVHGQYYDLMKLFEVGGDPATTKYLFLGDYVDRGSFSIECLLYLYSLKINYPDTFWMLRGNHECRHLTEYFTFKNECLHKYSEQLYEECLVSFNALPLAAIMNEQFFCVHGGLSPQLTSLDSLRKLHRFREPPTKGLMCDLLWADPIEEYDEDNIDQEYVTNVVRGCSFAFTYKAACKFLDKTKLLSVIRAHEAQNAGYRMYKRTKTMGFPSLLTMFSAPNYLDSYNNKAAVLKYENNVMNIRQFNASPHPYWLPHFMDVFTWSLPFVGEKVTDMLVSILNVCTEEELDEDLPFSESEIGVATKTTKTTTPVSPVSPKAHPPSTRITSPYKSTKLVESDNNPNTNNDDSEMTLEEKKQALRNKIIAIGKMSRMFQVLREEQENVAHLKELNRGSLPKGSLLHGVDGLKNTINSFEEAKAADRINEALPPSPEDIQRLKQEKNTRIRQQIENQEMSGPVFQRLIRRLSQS

[11] = biological target: Intestinal-type alkaline phosphatase (Mus musculus, UniProt P24822); test: PubChem AID 488875; assay type: functional
[12] = biological target: T4, Intestinal-type alkaline phosphatase (Homo sapiens, UniProt P09923); test: human intestinal alkaline phosphatase activators, dose response, biochemical, luminescence, uHTS hits (AID 463120); assay type: functional
[13] = biological target: T4, Intestinal-type alkaline phosphatase; test: activation of human intestinal alkaline phosphatase – biochemical, luminescent, uHTS hits, set 2, dose response (AID 488817); assay type: functional;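 also: potency of activators that raise enzyme activity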
[14] = biological target: T5, Alkaline phosphatase, tissue-nonspecific isozyme (Homo sapiens, UniProt P05186); test: activation of tissue-nonspecific alkaline phosphatase – biochemical, TNAP isozyme, human IAP uHTS hits, selectivity assay for human IAP activator project, dose response (AID 488886); assay type: functional;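 also: potency of compounds raising TNAP activity as a selectivity check on IAP activators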
T5 sequence (P05186 whole entry): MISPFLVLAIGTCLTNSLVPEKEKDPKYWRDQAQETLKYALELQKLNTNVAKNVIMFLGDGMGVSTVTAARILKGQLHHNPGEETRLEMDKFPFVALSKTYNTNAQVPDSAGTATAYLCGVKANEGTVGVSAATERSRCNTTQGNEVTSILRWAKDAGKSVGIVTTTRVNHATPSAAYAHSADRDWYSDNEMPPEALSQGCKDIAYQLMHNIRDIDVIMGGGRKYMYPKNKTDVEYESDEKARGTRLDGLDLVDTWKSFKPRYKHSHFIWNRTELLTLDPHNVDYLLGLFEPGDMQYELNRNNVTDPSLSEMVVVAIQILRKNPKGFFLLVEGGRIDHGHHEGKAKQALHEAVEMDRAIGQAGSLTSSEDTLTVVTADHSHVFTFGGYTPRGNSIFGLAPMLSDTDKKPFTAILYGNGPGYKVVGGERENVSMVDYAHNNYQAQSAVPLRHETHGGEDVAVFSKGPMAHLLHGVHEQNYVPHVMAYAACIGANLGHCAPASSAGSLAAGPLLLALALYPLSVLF

INS1 = test: INS-1E survival protection against cytokine death – cell-based, luminescence, retest, dose response (AID 449756); assay type: functional; conditions: Rattus norvegicus;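 also: cell death triggered by IL-1 beta plus TNF-alpha plus IFN-gamma mixture; protective hits raise ATP signal compared with cytokine alone wells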
[15] = biological target: Heat shock protein HSP 90-alpha (Homo sapiens, UniProt P07900); assay type: functional, organism-based
CAAX prenyl protease 2 [16] = biological target: CAAX prenyl protease 2 (Saccharomyces cerevisiae S288c, UniProt Q03530); assay type: biochemical
CAAX prenyl protease 1 = CAAX prenyl protease 1 (Saccharomyces cerevisiae S288c, UniProt P47154); test: yeast CAAX protease Ste24 inhibition – biochemical, S. cerevisiae, plate reader, cherry-pick, dose response (AID 488815)
Troponin, cardiac muscle = Troponin, cardiac muscle (Homo sapiens, UniProt P19429+P45379+P63316); test: Fluorescence-based biochemical high throughput dose response assay for activators of the calcium sensitivity of cardiac Regulated Thin Filaments (RTF). [Related pubchem assays (depositor defined):AID493008, AID493018, AID504382, AID504383]; assay type: protein-complex assay
CAAX prenyl protease 2 [17] = biological target: T6, CAAX prenyl protease 2 (Homo sapiens, UniProt Q9Y256); test: inhibition of Ras-converting CAAX protease Rce1 – biochemical, yeast membranes, quenched-peptide fluorescence, cherry-pick, dose response (AID 588849)
T6 sequence (Q9Y256 whole entry): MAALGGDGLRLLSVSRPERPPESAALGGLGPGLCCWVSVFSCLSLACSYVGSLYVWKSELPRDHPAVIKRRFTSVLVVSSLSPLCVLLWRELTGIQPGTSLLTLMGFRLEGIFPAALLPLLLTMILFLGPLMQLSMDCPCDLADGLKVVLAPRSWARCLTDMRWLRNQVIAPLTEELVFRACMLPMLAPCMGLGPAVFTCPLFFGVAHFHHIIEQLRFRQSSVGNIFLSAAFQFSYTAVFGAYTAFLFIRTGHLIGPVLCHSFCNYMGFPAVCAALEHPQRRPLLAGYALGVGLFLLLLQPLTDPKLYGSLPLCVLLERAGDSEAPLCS

Prothrombin = Prothrombin (Homo sapiens, UniProt P00734); test: Thrombin 1536 HTS Dose Response Confirmation. [Related pubchem assays: 1046 (Thrombin 1536 HTS; hits were confirmed in this assay)]; assay type: functional
[18] = biological target: G-protein coupled receptor 55 (Homo sapiens, UniProt Q9Y2T6); test: inhibition of LPI-stimulated GPR55 beta-arrestin translocation – imaging, U2OS, beta-arrestin-GFP, LPI agonist, primary screen (AID 2013); assay type: functional;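 also: antagonist potency measured as reduced agonist-driven arrestin aggregation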
[19] = biological target: T7, RNA-binding protein pos-1 (Caenorhabditis elegans, UniProt G5EF15); test: disruptors of C. elegans POS-1 RNA interaction – biochemical, fluorescence polarization, dose response (AID 1964);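 also: purified POS-1 fused to maltose binding protein made in E. coli; potency of compounds blocking POS-1 binding to fluorescent RNA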
T7 sequence (G5EF15 whole entry): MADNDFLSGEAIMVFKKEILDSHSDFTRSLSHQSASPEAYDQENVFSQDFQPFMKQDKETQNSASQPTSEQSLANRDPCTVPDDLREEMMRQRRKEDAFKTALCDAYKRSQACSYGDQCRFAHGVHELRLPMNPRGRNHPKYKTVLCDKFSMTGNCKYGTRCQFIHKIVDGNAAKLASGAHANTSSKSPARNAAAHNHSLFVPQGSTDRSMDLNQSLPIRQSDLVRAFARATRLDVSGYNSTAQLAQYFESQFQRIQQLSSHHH

Estrogen receptor beta [20] = biological target: T8, Estrogen receptor beta (Homo sapiens, UniProt Q92731);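 also: recombinant ER-beta bound to coactivator SRC1 peptide in presence of estradiol agonist; inhibitors block coactivator peptide binding and lower the FRET signal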
Estrogen receptor beta [21] = biological target: T8, Estrogen receptor beta; test: blockers of SRC-3 recruitment to ERβ – biochemical, ELISA, streptavidin-HRP readout, orthogonal assay, confirmation (AID 1060)
[22] = biological target: T9, Zinc finger protein mex-5 (Caenorhabditis elegans, UniProt Q9XUB2); test: potency of MEX-5 RNA-binding blockers – biochemical, C. elegans, fluorescence polarization, dose response (AID 1960)
T9 sequence (Q9XUB2 whole entry): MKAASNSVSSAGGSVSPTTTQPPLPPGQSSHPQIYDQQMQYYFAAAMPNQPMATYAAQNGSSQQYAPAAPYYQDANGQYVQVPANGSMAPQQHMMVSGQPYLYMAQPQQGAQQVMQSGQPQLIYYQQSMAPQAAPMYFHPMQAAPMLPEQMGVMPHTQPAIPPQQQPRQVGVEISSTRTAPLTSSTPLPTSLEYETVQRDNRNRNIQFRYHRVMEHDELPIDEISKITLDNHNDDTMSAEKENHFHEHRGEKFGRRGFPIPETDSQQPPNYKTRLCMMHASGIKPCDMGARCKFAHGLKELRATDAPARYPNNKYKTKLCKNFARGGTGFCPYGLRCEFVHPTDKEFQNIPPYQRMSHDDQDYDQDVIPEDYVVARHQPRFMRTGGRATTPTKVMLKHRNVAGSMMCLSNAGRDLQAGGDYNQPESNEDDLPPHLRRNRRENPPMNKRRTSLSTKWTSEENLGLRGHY

T4 sequence (P09923 whole entry): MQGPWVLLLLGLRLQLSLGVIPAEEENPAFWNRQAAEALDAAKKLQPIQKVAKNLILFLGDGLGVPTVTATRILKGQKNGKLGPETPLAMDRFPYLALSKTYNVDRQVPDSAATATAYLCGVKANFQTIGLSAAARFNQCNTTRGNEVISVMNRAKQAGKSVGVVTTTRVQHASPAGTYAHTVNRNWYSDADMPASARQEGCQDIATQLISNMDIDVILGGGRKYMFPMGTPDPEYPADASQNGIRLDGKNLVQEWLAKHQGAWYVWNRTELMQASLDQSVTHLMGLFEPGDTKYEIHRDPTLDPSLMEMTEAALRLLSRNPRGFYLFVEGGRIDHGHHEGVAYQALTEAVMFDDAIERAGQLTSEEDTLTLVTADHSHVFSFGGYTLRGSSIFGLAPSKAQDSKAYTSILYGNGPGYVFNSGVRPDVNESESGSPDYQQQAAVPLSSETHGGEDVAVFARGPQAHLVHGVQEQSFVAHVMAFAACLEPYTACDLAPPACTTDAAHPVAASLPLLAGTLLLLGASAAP
CAAX prenyl protease 1, sequence (P47154 whole entry): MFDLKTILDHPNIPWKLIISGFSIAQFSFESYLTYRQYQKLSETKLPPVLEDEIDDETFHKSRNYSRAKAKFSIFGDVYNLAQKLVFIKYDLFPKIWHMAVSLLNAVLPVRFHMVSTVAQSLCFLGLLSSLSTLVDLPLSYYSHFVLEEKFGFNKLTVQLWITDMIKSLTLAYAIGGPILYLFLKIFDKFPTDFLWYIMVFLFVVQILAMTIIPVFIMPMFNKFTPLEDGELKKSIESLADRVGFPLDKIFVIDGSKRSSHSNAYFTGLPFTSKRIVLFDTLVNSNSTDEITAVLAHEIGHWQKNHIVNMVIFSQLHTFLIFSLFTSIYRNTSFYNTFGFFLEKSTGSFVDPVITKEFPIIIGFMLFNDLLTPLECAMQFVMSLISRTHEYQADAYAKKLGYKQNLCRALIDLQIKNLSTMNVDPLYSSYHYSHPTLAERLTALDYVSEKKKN
T8 sequence (Q92731 whole entry): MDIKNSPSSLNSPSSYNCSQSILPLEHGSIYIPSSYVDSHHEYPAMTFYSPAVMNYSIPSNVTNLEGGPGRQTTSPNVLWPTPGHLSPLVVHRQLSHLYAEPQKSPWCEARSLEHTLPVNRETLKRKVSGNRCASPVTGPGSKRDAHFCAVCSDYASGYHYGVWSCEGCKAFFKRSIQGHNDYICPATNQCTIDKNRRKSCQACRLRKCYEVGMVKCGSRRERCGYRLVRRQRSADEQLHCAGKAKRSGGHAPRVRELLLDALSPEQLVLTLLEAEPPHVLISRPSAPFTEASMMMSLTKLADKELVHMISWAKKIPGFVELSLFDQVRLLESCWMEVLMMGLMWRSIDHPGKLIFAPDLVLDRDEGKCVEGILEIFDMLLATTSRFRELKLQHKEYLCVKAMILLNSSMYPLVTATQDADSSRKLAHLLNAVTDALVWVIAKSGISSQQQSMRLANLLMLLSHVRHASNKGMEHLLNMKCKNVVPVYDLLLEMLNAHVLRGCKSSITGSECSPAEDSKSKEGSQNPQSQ
T1 sequence (Q00975 whole entry): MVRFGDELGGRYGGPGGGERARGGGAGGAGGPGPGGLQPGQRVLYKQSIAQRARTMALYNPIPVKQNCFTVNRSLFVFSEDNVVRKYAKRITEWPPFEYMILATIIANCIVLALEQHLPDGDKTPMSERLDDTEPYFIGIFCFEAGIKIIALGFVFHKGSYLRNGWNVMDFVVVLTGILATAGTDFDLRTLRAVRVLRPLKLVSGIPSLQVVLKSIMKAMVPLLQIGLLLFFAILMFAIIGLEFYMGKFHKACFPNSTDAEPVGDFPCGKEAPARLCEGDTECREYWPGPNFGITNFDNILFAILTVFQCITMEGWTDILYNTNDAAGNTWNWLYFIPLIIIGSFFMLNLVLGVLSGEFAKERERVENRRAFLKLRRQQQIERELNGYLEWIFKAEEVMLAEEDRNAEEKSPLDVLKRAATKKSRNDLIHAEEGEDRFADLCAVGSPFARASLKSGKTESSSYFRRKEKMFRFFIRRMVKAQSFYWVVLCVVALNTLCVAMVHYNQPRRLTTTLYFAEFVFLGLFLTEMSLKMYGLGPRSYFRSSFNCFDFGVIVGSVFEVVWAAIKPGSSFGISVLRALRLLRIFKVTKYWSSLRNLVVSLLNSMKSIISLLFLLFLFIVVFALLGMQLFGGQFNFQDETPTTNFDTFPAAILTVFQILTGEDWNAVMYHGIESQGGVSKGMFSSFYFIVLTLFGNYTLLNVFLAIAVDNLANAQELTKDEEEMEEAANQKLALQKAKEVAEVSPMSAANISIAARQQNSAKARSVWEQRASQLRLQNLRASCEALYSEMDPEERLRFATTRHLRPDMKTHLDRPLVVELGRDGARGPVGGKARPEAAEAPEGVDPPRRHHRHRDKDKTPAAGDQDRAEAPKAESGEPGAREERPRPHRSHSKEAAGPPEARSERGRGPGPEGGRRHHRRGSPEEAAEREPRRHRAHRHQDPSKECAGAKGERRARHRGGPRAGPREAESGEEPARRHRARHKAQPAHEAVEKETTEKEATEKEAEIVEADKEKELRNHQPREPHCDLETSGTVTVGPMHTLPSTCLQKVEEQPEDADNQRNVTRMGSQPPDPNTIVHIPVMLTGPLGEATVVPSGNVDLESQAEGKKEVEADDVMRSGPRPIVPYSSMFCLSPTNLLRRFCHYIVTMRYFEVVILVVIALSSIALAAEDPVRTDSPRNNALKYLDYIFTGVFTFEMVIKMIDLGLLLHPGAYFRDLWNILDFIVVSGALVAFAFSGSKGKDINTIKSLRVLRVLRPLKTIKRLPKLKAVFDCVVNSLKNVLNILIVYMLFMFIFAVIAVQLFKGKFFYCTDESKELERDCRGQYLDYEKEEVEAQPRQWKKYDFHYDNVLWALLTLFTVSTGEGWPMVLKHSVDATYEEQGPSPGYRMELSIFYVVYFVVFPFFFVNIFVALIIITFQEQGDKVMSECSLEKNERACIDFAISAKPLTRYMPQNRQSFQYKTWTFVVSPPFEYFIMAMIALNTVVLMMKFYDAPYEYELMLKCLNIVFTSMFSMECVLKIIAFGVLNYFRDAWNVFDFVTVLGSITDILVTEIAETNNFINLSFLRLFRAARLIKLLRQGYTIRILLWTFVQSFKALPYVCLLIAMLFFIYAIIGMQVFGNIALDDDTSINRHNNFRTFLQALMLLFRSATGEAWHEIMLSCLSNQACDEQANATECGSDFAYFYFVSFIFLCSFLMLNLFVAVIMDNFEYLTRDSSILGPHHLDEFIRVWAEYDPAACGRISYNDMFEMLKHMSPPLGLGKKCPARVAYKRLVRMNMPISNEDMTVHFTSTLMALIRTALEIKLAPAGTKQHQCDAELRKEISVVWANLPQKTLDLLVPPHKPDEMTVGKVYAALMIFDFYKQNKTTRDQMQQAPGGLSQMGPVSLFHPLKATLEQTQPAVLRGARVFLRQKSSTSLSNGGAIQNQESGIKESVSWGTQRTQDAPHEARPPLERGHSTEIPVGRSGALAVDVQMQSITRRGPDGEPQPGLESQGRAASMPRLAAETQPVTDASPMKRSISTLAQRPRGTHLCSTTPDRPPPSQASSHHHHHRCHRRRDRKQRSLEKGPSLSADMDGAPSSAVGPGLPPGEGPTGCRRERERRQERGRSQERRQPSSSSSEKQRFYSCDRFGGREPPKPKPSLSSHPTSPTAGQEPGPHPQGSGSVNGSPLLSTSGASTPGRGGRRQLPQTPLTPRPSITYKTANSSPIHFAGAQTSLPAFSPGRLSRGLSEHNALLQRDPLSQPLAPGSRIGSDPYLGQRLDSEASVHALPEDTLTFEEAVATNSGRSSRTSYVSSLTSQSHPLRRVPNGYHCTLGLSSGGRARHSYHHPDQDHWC
T1 sequence (Q02410 whole entry): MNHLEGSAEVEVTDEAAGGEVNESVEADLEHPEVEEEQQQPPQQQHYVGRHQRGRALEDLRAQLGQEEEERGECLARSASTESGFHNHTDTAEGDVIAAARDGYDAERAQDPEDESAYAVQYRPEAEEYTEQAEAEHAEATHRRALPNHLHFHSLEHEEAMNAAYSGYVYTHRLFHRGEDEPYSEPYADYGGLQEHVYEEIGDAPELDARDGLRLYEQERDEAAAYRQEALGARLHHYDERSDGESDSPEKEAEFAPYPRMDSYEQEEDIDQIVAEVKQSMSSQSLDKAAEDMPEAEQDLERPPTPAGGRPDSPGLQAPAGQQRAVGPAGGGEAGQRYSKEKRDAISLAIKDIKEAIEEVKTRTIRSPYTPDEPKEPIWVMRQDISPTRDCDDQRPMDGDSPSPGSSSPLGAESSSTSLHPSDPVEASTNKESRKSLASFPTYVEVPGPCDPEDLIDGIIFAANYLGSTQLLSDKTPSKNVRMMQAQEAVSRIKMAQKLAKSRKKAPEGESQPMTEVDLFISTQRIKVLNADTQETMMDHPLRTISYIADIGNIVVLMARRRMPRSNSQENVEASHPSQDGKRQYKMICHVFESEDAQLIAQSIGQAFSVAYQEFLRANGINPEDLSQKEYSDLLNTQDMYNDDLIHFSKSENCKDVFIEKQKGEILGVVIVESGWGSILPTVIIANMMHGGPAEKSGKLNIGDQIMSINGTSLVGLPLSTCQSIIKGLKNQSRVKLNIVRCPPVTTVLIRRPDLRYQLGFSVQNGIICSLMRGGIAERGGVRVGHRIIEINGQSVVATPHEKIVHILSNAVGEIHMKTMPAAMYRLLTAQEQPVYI
G-protein coupled receptor 55, sequence (Q9Y2T6 whole entry, the tested form may be a part): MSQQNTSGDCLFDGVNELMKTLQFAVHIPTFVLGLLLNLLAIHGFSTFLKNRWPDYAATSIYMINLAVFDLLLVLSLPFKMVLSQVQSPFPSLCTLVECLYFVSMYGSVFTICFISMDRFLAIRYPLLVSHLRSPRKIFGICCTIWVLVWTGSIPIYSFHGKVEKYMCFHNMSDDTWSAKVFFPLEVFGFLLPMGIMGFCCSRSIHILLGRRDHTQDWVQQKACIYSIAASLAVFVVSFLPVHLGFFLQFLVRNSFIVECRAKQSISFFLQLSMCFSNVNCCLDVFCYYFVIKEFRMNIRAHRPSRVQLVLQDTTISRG

SMILES: CSc1nc(NCCOCCO)c2sc3nc(-c4ccco4)c4c(c3c2n1)CCC4
- EC50 [1]: 8.85 µM (active)
- EC50 [2]: 6.86 µM (active)
- IC50 [3]: 1.92 µM (active)
- IC50 [4]: 1.98 µM (active)
- IC50 [5]: 14.7 µM (active)
- IC50 (Ephrin type-A receptor 4): > 100 µM (not active)
- IC50 (Estrogen receptor): > 50 µM (not active)

SMILES: CCN(CC)c1ccc2cc(S(=O)(=O)c3ccc(C)cc3)c(=O)oc2c1
- EC50 [6]: 0.203 µM (active)
- AC50 [7]: 63.4 µM (active)
- AC50 (ORF 73): 18.4 µM (active)
- EC50 [8]: 21.9 µM (active)
- EC50 [9]: 25.2 µM (active)
- EC50 [10]: > 180 µM (inactive)

SMILES: CC1=NN(c2nc3ccccc3[nH]2)C(=O)/C1=C/N(C)C
- EC50 [11]: > 100 µM (inactive)
- EC50 [12]: 12.3 µM (active)
- EC50 [13]: 23.2 µM (active)
- EC50 [14]: 11.4 µM (active)
- AC50 (INS1): 2.48 µM (active)
- AC50 [15]: 6.12 µM (active)

SMILES: COc1ccc(C2c3c(ncn(CCCO)c3=N)Oc3ccc4ccccc4c32)cc1 (stereo unspecified)
- AC50 (CAAX prenyl protease 2 [16]): 5.6 µM (active)
- AC50 (CAAX prenyl protease 1): 8.82 µM (active)

SMILES: Cn1cc(/C=C2\SC(=S)N(NC(=O)c3ccccc3)C2=O)c2ccccc21
- EC50 (Troponin, cardiac muscle): 1.47 µM (active)

SMILES: CCOC(=O)C1=C(C)OC(N)=C(C#N)C1c1cc2c(cc1[N+](=O)[O-])OCO2 (stereo unspecified)
- AC50 (CAAX prenyl protease 2 [17]): 13.2 µM (active)
- IC50 (Prothrombin): 0.915 µM (active)
- AC50 (CAAX prenyl protease 1): 5.61 µM (active)

SMILES: Cc1ccc(-c2nc(SCC(=O)N(C)C3CCS(=O)(=O)C3)[nH]c2-c2ccc(C)cc2)cc1 (stereo unspecified)
- IC50 [18]: 3.83 µM (active)

SMILES: Cc1nn(C)c(C(=O)NN=C(S)NCc2ccccc2)c1Cl
- EC50 [11]: > 100 µM (inactive)
- EC50 [12]: 14.8 µM (active)
- EC50 [13]: 17 µM (active)
- EC50 [14]: 17.3 µM (active)

SMILES: CC(=O)Nc1ccc(/N=C/c2nc(-c3ccc(C)cc3)oc2O)cc1
- EC50 [19]: > 300 µM (not active)
- IC50 (Estrogen receptor beta [20]): > 50 µM (not active)
- EC50 (Troponin, cardiac muscle): 11.6 µM (inactive)
- IC50 (Estrogen receptor): 8.2 µM (active)
- IC50 (Estrogen receptor beta [21]): 21.6 µM (not active)
- EC50 [22]: > 300 µM (inconclusive)
